Reference: patent US10577368B2 (The United States of America, as represented by the …, priority 2013, dated 2020)

Legend:
hA1AR = hA1AR (Homo sapiens (Human), UniProt P30542); experiment: Radioligand binding at hA1AR, CHO cell membranes, [3H]R-PIA; settings: for inhibition at 10 µM: read-out: hA1AR % inhibition; for hA1AR % inhibition: inhibition of binding at 10 μM
hA2AAR = hA2AAR (Homo sapiens (Human), UniProt P29274); experiment: Radioligand binding at hA2AAR, HEK293 cell membranes, [3H]CGS21680; settings: for inhibition at 10 µM: read-out: hA2AAR % inhibition; for hA2AAR % inhibition: inhibition of binding at 10 μM
[1] = tested on: chronic constriction injury model of neuropathic pain; experiment: CCI model of neuropathic pain, reversal of mechano-allodynia; format: in vivo, mice; settings: for Efficacy in reversing NP in vivo (of full reversal at peak effect): CCI model; for Effect at 3 h (% ± SEM) / Max. effect Emax (% ± SEM) / Time of peak protection: 3 μmol/kg p.o., mice; for Max. effect Emax (% ± SEM) / Time of peak protection: ipsilateral hind paw
hA3AR = hA3AR (Homo sapiens (Human), UniProt P0DMS8); experiment: Radioligand binding at hA3AR, CHO cell membranes, [125I]I-AB-MECA
Sequence of hA3AR (P0DMS8 whole entry): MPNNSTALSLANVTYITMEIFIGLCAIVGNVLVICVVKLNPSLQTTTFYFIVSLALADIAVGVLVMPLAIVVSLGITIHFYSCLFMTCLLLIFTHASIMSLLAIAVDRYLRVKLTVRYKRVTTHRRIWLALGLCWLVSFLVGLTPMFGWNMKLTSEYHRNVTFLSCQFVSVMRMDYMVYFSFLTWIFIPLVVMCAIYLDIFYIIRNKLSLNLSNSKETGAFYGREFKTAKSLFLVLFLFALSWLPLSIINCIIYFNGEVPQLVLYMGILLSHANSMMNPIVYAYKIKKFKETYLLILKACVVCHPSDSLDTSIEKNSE

Sequence of hA2AAR (P29274 whole entry): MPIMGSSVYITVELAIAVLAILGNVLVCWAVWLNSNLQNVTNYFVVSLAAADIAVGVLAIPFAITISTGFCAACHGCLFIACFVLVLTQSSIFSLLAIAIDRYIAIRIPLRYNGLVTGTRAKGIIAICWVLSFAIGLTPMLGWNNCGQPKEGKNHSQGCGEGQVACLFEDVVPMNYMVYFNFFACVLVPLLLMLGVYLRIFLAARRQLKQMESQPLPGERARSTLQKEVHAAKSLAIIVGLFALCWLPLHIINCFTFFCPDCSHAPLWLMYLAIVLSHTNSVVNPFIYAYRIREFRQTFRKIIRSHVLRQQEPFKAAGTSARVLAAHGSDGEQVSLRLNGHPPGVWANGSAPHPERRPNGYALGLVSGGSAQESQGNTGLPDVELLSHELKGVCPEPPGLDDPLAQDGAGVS
Sequence of hA1AR (P30542 whole entry): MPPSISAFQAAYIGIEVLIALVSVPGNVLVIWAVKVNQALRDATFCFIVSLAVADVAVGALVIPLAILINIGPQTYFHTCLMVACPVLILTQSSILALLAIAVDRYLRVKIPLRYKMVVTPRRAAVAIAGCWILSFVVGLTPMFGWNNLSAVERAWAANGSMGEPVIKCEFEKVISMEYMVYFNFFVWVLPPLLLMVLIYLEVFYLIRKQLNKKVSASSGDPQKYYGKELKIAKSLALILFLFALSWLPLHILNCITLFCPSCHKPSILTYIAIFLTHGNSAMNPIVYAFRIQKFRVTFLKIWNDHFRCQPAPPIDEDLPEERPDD

Structure (SMILES)	inhibition at 10 µM (hA1AR)	inhibition at 10 µM (hA2AAR)	Efficacy in reversing NP in vivo (of full reversal at peak effect) [1]	Time of peak protection [1]	other results
CNC(=O)[C@@]12C[C@@H]1[C@@H](n1cnc3c(NC)nc(C#CC4CC4)nc31)[C@H](O)[C@@H]2O [Compound 20, (1S,2R,3S,4R,5S)-4-(2-(Cyclopropylethynyl)-6-(methylamino)-9H-purin-9-yl)-2,3-dihydroxy-N-methylbicyclo[3.1.0]hexane-1-carboxamide]	38%	15 ± 10%	60-70%	–	–
CNC(=O)[C@]12CC1[C@@H](n1cnc3c(NCc4cccc(Cl)c4)nc(I)nc31)[C@H](O)C2O (some centres unmarked) [Compound 116]	–	–	–	–	Ki (hA2AAR): > 10 µM
CNC(=O)[C@]12CC1[C@@H](n1cnc3c(NC)nc(C#Cc4ccccc4)nc31)[C@H](O)C2O (some centres unmarked) [Compound 400, reference compound]	–	–	~30%	0.5 to 1 h	hA1AR % inhibition (hA1AR): (18% ± 8%); hA2AAR % inhibition (hA2AAR): (14% ± 7%); Effect at 3 h (% ± SEM) [1]: 5.0 ± 5.0%; Max. effect Emax (% ± SEM) [1]: 44.1 ± 9.9%
CNC(=O)[C@@]12C[C@@H]1[C@@H](n1cnc3c(NC4CC4c4ccc(F)c(F)c4)nc(C#Cc4ccccc4)nc31)[C@H](O)[C@@H]2O (mixture of isomers) [Compound 26, (1 S,2R,3S,4R,5S)-4-(6-((2-(3,4-Difluorophenyl)cyclopropyl)amino)-2-(phenylethynyl)-9H-purin-9-yl)-2,3-dihydroxy-N-methylbicyclo[3.1.0]hexane-1-carboxamide]	–	–	–	–	Ki (hA3AR): 20.2 ± 2.1 nM
CNC(=O)[C@]12CC1[C@@H](n1cnc3c(NC)nc(-n4cc(-c5ccc(F)c(F)c5)nn4)nc31)[C@H](O)C2O (some centres unmarked) [Compound 102]	–	–	–	1 h	hA2AAR % inhibition (hA2AAR): 39 ± 4%; Effect at 3 h (% ± SEM) [1]: 8 ± 8%; Max. effect Emax (% ± SEM) [1]: 55 ± 6%
CNC(=O)[C@@]12C[C@@H]1[C@@H](n1cnc3c(NC4CC4c4cccc(Br)c4)nc(C#Cc4ccccc4)nc31)[C@H](O)[C@@H]2O (mixture of isomers) [Compound 25, (1S,2R,3S,4R,5S)-4-(6-((2-(3-Bromophenyl)cyclopropyl)amino)-2-(phenylethynyl)-9H-purin-9-yl)-2,3-dihydroxy-N-methylbicyclo[3.1.0]hexane-1-carboxamide]	–	–	–	–	Ki (hA3AR): 14.5 ± 1 nM
CNC(=O)[C@@]12C[C@@H]1[C@@H](n1cnc3c(NC)nc(C#Cc4cccnc4)nc31)[C@H](O)[C@@H]2O [Compound 15, (1S,2R,3S,4R,5S)-2,3-Dihydroxy-N-methyl-4-(6-(methylamino)-2-(pyridin-3-ylethynyl)-9H-purin-9-yl)bicyclo[3.1.0]hexane-1-carboxamide]	16 ± 10%	12 ± 6%	low efficacy	0.5 to 2 h	–
CNC(=O)[C@@]12C[C@@H]1[C@@H](n1cnc3c(NC)nc(C#Cc4cccnn4)nc31)[C@H](O)[C@@H]2O [Compound 10, (1S,2R,3S,4R,5S)-2,3-Dihydroxy-N-methyl-4-(6-(methylamino)-2-(pyridazin-3-ylethynyl)-9H-purin-9-yl)bicyclo[3.1.0]hexane-1-carboxamide]	11%	13 ± 8%	less than full efficacy	0.5 h	–
CNC(=O)[C@]12CC1[C@@H](n1cnc3c(NC)nc(I)nc31)[C@H](O)C2O (some centres unmarked) [Compound 114]	–	–	–	–	Ki (hA3AR): 1.91 ± 0.85 nM
CNC(=O)[C@@]12C[C@@H]1[C@@H](n1cnc3c(NC)nc(C#Cc4cc(C)c(C)o4)nc31)[C@H](O)[C@@H]2O [Compound 29, (1S,2R,3S,4R,5S)-4-(2-((4,5-Dimethylfuran-2-yl)ethynyl)-6-(methylamino)-9H-purin-9-yl)-2,3-dihydroxy-N-methylbicyclo[3.1.0]hexane-1-carboxamide]	15%	21 ± 3%	–	1 h	–
CNC(=O)[C@@]12C[C@@H]1[C@@H](n1cnc3c(NC4CC4c4cccc(C)c4)nc(C#Cc4ccccc4)nc31)[C@H](O)[C@@H]2O (mixture of isomers) [Compound 22, (1S,2R,3S,4R,5S)-2,3-Dihydroxy-N-methyl-4-(2-(phenylethynyl)-6-((2-(m-tolyl)cyclopropyl)amino)-9H-purin-9-yl)bicyclo[3.1.0]hexane-1-carboxamide]	–	–	–	–	Ki (hA3AR): 17.6 ± 1.3 nM
CNC(=O)[C@@]12C[C@@H]1[C@@H](n1cnc3c(NC4CC4c4cccc(Cl)c4)nc(C#Cc4ccccc4)nc31)[C@H](O)[C@@H]2O (mixture of isomers) [Compound 24, (1S,2R,3S,4R,5S)-4-(6-((2-(3-Chlorophenyl)cyclopropyl)amino)-2-(phenylethynyl)-9H-purin-9-yl)-2,3-dihydroxy-N-methylbicyclo[3.1.0]hexane-1-carboxamide]	–	–	–	–	Ki (hA3AR): 11.2 ± 4.2 nM
CNC(=O)[C@]12CC1[C@@H](n1cnc3c(NC)nc(C#Cc4ccccn4)nc31)[C@H](O)C2O (some centres unmarked) [Compound 401, reference compound]	–	–	low efficacy	–	hA1AR % inhibition (hA1AR): (13% ± 8%); hA2AAR % inhibition (hA2AAR): (13% ± 4%)

Now from value to compound, other results behind:

inhibition at 10 µM (hA1AR)	inhibition at 10 µM (hA2AAR)	Structure (SMILES)	Efficacy in reversing NP in vivo (of full reversal at peak effect) [1]	Time of peak protection [1]	other results
15%	45 ± 6%	CNC(=O)[C@@]12C[C@@H]1[C@@H](n1cnc3c(NC)nc(C#CC4CCCCC4)nc31)[C@H](O)[C@@H]2O [Compound 19, (1S,2R,3S,4R,5S)-4-(2-(Cyclohexylethynyl)-6-(methylamino)-9H-purin-9-yl)-2,3-dihydroxy-N-methylbicyclo[3.1.0]hexane-1-carboxamide]	60-70%	1 to 2 h	Max. effect Emax (% ± SEM) [1]: 64.1 ± 10.5%
13%	18 ± 3%	CNC(=O)[C@@]12C[C@@H]1[C@@H](n1cnc3c(NC)nc(C#Cc4cc5ccccc5o4)nc31)[C@H](O)[C@@H]2O [Compound 33, (1S,2R,3S,4R,5S)-4-(2-(Benzofuran-2-ylethynyl)-6-(methylamino)-9H-purin-9-yl)-2,3-dihydroxy-N-methylbicyclo[3.1.0]hexane-1-carboxamide]	–	1 h	Max. effect Emax (% ± SEM) [1]: 87.4 ± 0.6%
10%	12 ± 6%	CNC(=O)[C@@]12C[C@@H]1[C@@H](n1cnc3c(NC)nc(C#Cc4cccc(C(F)(F)F)c4)nc31)C(O)C2O (stereo in doubt) [Compound 14, (1 S,2S,3R,4R,5S)-2,3-Dihydroxy-N-methyl-4-(6-(methylamino)-2-((3-(trifluoromethyl)phenyl)ethynyl)-9H-purin-9-yl)bicyclo[3.1.0]hexane-1-carboxamide]	–	0.5 to 1 h	–
15 ± 6%	34 ± 7%	CNC(=O)[C@@]12C[C@@H]1[C@@H](n1cnc3c(C)nc(C#Cc4ccc(C(C)(C)C)cc4)nc31)C(O)C2O (stereo in doubt) [Compound 41, (1S,2S,3R,4R,5S)-4-(2-((4-(tert-butyl)phenyl)ethynyl)-6-methyl-9H-purin-9-yl)-2,3-dihydroxy-N-methylbicyclo[3.1.0]hexane-1-carboxamide]	–	–	–
16%	11 ± 7%	CNC(=O)[C@@]12C[C@@H]1[C@@H](n1cnc3c(NC)nc(C#Cc4ccc(CO)cc4)nc31)[C@H](O)[C@@H]2O [Compound 31, (1S,2R,3S,4R,5S)-2,3-Dihydroxy-4-(2-((4-(hydroxymethyl)phenyl)ethynyl)-6-(methylamino)-9H-purin-9-yl)-N-methylbicyclo[3.1.0]hexane-1-carboxamide]	–	1 h	–
